These are literature values, as cited in patent publication US9339034B2, “Use of thaxtomin for selective control of rice and aquatic based weeds” (MARRONE BIO INNOVATIONS, INC., priority 2009, dated 2016).

For this data set, the system named is weeds. Particulars: in vivo; cited from earlier work.

Regarding `C=C(CO)C(C)(O)CC(=O)O` (stereo not shown) [mevalocidin], the “time to kill weeds” value is 3-4 weeks.
